The text below walks through data of US20240374545A1, “DIAGNOSIS OF IMMUNITY REDUCTION THROUGH INTESTINAL MICROFLORA ANALYSIS OF STOMACH CANCER PATIENTS, AND THERAGNOSTIC COMPOSITION USING INTESTINAL MICROFLORA” (THE CATHOLIC UNIVERSITY OF KOREA INDUSTRY-ACADEMIC …, priority 2022, published 2024).

The subject of experiment [1] is AGS cell line, a stomach cancer cell line. The experiment in a line: Apoptosis of AGS stomach cancer cell line by Annexin/PI flow cytometry (SD217). It counts as cell-based. The settings on record: 48 hours. On the procedure: It was determined whether SD217, a novel compound of the present invention, may specifically kill stomach cancer cells. Specifically, 2×10^5 of a AGS cell line, a stomach cancer cell line, was inoculated into a 6-well plate and then treated with SD217, the novel compound of the present invention, at a concentration of 0.2 mM after overnight, and after 48 hours, stained with Annexin/PI, and then apoptotic cells were analyzed by flow cytometry. As a control group, a Vehicle group treated with the same amount of PBS was used. Thereafter, early apoptotic cells were confirmed, a ratio of late apoptotic/necrotic cells was confirmed, and thus death of the stomach cancer cell line was confirmed.
It was confirmed whether SD217, the novel compound of the present invention, induced early and late apoptosis in stomach cancer cell line. Specifically, 2×10^5 of a AGS cell line, a stomach cancer cell line, was inoculated into a 6-well plate and then treated with SD217, the novel compound of the present invention, at concentrations of 1, 5, 10, 20, and 50 mM after overnight, and after 48 hours, stained with Annexin/PI, and then apoptotic cells were analyzed by flow cytometry.
In general terms: Flow cytometry measures light scatter and fluorescence of single cells or particles in a stream.

For experiment [2] the test system is unchanged. The experiment in a line: Stomach cancer transplant animal model (AGS subcutaneous in NSG mice), tumor growth. In kind it is in vivo. The settings on record: NSG mice with AGS tumor, 50 mg/kg orally daily, compared to the Vehicle group (FIG. 3). The procedure: It was confirmed whether SD217, the novel compound of the present invention, inhibited tumor growth. Specifically, a stomach cancer transplant animal model was fabricated by subcutaneously injecting 5×10^6 of the AGS cell line, a stomach cancer cell line, into 6-8-week-old immunodeficient mice (NSG). Thereafter, SD217 was orally administered daily at a concentration of 50 mg/kg. After AGS cell injection and SD217 administration, tumor size was measured three times weekly using calipers, and tumor volume was calculated by substituting the lengths in long axis and short axis of the tumor into Equation 1 below. As a control group, a Vehicle group injected with the same amount of PBS was used.

For experiment [3], the system named is Programmed Death-Ligand 1 (PD-L1). The experiment in a line: PD-L1 positive cells in AGS stomach cancer cell line by flow cytometry. The settings on record: AGS cells, 0.2, 0.5, and 1 mM, compared to the Vehicle group (FIG. 2). It counts as cell-based. From the text:
It was intended to confirm the expression of a Programmed Death-Ligand 1 (PD-L1) protein, an immunity reduction marker of stomach cancer cells, by SD217, a novel compound of the present invention. The PD-L1 protein was a surface protein of stomach cancer cells, and the PD-L1 is a protein that evaded the immune responses of T cells by binding to programmed cell death-1 (PD-1), a surface protein of activated T cells. […] Specifically, in the same manner as in Example 1, AGS cells, a stomach cancer cell line, were treated with 0.2, 0.5, and 1 mM of SD217 and reacted. Thereafter, PD-L1 positive cells were analyzed by flow cytometry. As a control group, a Vehicle group treated with PBS was used, and as a positive control group, 1 mM Metformin was used.

Where [4] appears, read: AGS cells, 1, 5, 10, 20, and 50 mM, compared to the Vehicle group (FIG. 4).

Regarding `N=C(N)NC(=N)Nc1ccc(F)cc1F` [SD217, 1-(2,4-difluorophenyl) biguanide], in experiment [1] (AGS cells, 0.2 mM, Annexin/PI, compared to the Vehicle group (FIG. 1)), the apoptosis result is on record as “significantly increased”. Besides, in experiment [1] (setting [4]), the early apoptosis result is reported as “induced in a concentration-dependent manner” and the late apoptosis entry is listed as “induced in a concentration-dependent manner”. Besides, in experiment [2], the tumor growth result is on record as “significantly inhibited” and the tumor volume result was “significantly reduced”. Also, the “number of PD-L1 positive cells” value in experiment [3] is reported as “significantly reduced”.
